Test [1] in a line: CEM21 lymphoblast cell cytotoxicity, dose response, cytotoxicity control for viral fusion inhibitor project, CellTiter-Glo luminescence, cherry-picked (AID 652042).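 Further: potency for signal decrease meaning cytotoxicity.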 Format: functional, cell-based.
Test [2] can be described thus: inhibitors of clade B AD8 Env fusion, dose response, cell-based, cherry-pick (AID 652062).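 Further: luciferase signal from cell-cell fusion driven by HIV-1 clade B AD8 Env; potency is for inhibitors of fusion seen as a drop in luminescence.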 Format: functional.
A short description of test [3]: inhibitors of HIV Env-driven cell fusion, dose response, cherry-pick (AID 652057). Format: functional, cell-based.
Test [4] can be described thus: ZM109 Env clade C HIV-1 fusion inhibitors, dose response, HeLa effector, CEM target cells, luciferase, cherry-pick (AID 652058). It counts as functional, cell-based.
For another test, the target named is Protein Tat (Human immunodeficiency virus type 1 group M subtype B (isolate HXB2)(HIV-1), UniProt P04608). Format: functional.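 Further: tat binding to TAR RNA read out by fluorescence polarization.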
Test [5] concerns the target T1, Nuclear receptor subfamily 0 group B member 1 (Homo sapiens, UniProt P51843).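 Further: HEK293T cells transfected with SF-1 and DAX-1 plus StAR promoter luciferase reporter.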
T1 sequence (P51843 whole entry): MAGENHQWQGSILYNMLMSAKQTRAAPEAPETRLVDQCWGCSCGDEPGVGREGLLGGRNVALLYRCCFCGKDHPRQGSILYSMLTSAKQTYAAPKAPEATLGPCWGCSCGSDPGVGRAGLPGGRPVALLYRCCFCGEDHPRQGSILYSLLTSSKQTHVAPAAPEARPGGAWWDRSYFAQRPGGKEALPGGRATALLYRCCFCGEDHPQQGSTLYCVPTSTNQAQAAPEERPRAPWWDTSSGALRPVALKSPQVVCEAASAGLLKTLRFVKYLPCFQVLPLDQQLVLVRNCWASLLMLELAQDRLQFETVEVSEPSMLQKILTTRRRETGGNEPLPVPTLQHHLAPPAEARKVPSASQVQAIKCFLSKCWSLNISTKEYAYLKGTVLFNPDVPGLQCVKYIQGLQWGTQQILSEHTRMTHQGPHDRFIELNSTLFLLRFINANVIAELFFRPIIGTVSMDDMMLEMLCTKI
It counts as functional, cell-based.

Another test is described as follows: cells. Format: functional, cell-based.
The target in test [6] is COUP transcription factor 2 (Homo sapiens, UniProt P24468). The test is described as follows: Luminescence-based cell-based high throughput dose response assay to identify inhibitors of COUP-TFII (NR2F2). Format: functional.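 Further: HEK293 cells transiently cotransfected with COUP-TFII expression vector and reporter; luciferase reporter luminescence driven by COUP-TFII from the pX2-168 reporter plasmid.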
The nature of test [7]: cytotoxicity in OVCAR8 ovarian cancer cells, dose response, PAX8 project, cell-based, plate reader, dry powder samples (AID 743197). The conditions noted are these: OVCAR-8. It counts as functional.
Test [8] is described as follows: NIH:OVCAR-3 ovarian cancer cell cytotoxicity, dose response, PAX8 inhibitor project, plate reader, dry powder samples (AID 743044). Format: functional, cell-based.
Test [9] can be described thus: IOSE-T80 ovarian epithelial cell cytotoxicity, dose response, cytotoxicity control for PAX8 inhibitor project, plate reader, dry powder samples (AID 743045). Format: functional, cell-based.
Test [10] in a line: non-specific cell cytotoxicity, dose response, cytotoxicity control for PAX8 inhibitor project, plate reader, dry powder samples (AID 743021). It counts as functional, cell-based.
In another test the target is Paired box protein Pax-8 (Homo sapiens, UniProt Q06710). The test is described as follows: inhibitors of PAX8-driven TPO luciferase reporter, dose response, RMG-I cells, cherry-pick (AID 687027).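 Further: luciferase reporter driven by Pax8 target thyroperoxidase promoter measured by SteadyGlo luminescence.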 Format: functional, cell-based. On the technique in general: A reporter such as luciferase makes a cellular process visible.
Test [11] in a line: cytotoxicity in A549 cells, dose response, cytotoxicity control, cell-based, CellTiter-Glo luminescence, cherry-pick (AID 743484). Format: functional. For orientation: Cellular ATP, detected with luciferase, serves as a proxy for viable cell number.
Test [12] is described as follows: HEK293T cell cytotoxicity, dose response, cytotoxicity control, CellTiter-Glo luminescence, cherry-picked samples, set 4 (AID 743441). It counts as functional, cell-based. Conditions: HEK293.
Test [13] in a line: Luminescence Cell-Based Dose Response HTS to Identify Activators of Luciferase Translation or Activity in H4 […] Cells. [Related pubchem assays: 1829 (Project Summary), 1814 (Primary HTS)]. Format: functional.
Test [14] in a line: Luminescence Cell-Based Dose Confirmation to Identify Activators of 5'UTR Stem-Loop Driven Alpha-Synuclein mRNA Translation in H4 Neuroglioblastoma Cells. [Related pubchem assays: 1829 (Project Summary), 1814 (Primary HTS)]. Format: functional.
Test [15] in a line: Luminescence Cell-Based Dose Response to Identify Activators of Luciferase Translation or Activity in H4-C Neuroglioblastoma Cells. [Related pubchem assays: 1829 (Project Summary), 1814 (Primary HTS)]. Format: functional.
For a further test, the system named is H4. The test is described as follows: Luminescence Cell-Based Dose Response HTS to Identify Activators of 5'UTR Stem-Loop Driven Prion Protein mRNA Translation in H4 Neuroglioblastoma Cells. [Related pubchem assays: 1829 (Project Summary), 1814 (Primary HTS)]. Format: functional. The conditions noted are these: Homo sapiens.
Test [16] is described as follows: Luminescence Cell-Based Dose Response to Identify Activators of 5'UTR Stem-Loop Driven Prion Protein mRNA Translation in H4-C Neuroglioblastoma Cells. [Related pubchem assays: 1829 (Project Summary), 1814 (Primary HTS)]. It counts as functional.

The source made the active and inactive calls. Some results are limits rather than exact numbers.

Chain of Paired box protein Pax-8 (Q06710 whole entry): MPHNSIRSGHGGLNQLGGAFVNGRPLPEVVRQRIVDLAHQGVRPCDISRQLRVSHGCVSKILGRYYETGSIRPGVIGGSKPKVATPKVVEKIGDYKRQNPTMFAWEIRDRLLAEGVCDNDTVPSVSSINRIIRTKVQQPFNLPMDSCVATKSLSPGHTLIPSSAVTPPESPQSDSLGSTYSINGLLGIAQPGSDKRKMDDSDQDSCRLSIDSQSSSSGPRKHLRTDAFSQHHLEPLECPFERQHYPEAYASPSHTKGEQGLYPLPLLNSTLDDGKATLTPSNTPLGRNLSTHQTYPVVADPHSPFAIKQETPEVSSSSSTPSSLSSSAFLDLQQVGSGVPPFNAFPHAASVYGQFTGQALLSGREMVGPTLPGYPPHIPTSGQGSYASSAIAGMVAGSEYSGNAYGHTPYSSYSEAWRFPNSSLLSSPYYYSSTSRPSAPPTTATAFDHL
Chain of Protein Tat (P04608 whole entry): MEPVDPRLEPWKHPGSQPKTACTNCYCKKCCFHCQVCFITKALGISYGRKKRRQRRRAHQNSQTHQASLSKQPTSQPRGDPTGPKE
Chain of COUP transcription factor 2 (P24468 whole entry): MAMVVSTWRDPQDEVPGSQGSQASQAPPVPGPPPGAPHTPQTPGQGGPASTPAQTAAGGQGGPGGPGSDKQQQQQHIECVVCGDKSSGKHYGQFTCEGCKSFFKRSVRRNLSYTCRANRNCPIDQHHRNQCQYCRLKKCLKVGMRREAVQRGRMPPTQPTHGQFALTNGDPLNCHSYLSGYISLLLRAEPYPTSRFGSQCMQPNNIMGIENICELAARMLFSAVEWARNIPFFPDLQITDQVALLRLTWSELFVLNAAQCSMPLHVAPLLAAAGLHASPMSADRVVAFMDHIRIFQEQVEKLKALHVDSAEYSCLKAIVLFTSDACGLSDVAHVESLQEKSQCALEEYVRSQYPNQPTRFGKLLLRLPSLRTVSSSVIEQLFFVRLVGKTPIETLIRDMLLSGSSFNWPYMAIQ

Turning to `COc1ccc(C(=O)Nc2nc(-c3ccc(S(=O)(=O)N4CCOCC4)cc3)cs2)cc1`, the half-maximal activity concentration (AC50) (in general, the midpoint of the concentration-response curve, whichever way the signal moves) in [1] was 40.3 µM (active); in test [2], 7.62 µM (active); in test [3], 63.4 µM (active); in test [4], 0.664 µM (active).

`COc1ccc(OC)c(N/C(C)=C/C(=O)c2ccc(C)o2)c1`: the IC50 (as a rule, the concentration at which inhibition is half-maximal) on Protein Tat was > 100 µM (inconclusive).

In the case of `O=C(Nc1ccc(SC(F)(F)F)cc1)c1ccccn1`, the results for the IC50 (in test [5]; in the test “cells”) were > 0.834 µM (active) and > 67.5 µM (inactive), respectively.

Turning to `Cc1cccc(N2CCN(C(=O)c3[nH]c(C(F)(F)F)nc3-c3ccccc3)CC2)c1C`, the IC50 (in [5]; in “cells”) was > 67.5 µM (inactive) each time.

Turning to `CCNc1nc(-c2sc(NC(=O)C(C)(C)C)nc2C)c(-n2cc(-c3ccccc3)nn2)s1`, the IC50 in [6] was 10.7 µM (inactive).

`N#C[C@@H]1[C@H](c2ccc(-c3cccc(F)c3)cc2)[C@H](CO)N1C(=O)c1cccnc1`: the concentration at half-maximal activity (AC50) in [1] was 57.4 µM (active); in test [2] it was 3.62 µM (active).

`C[C@H](CO)N1C[C@H](C)[C@@H](CN(C)S(=O)(=O)c2ccc(Cl)cc2)OCCCC[C@H](C)Oc2ccc(NS(=O)(=O)c3cccs3)cc2C1=O`: the AC50 in [7] was 24.5 µM (active); in test [8], 15 µM (active); in test [9], 12.7 µM (active); in test [10] it was 21.4 µM (active); at Paired box protein Pax-8, 4.18 µM (active).

On to `COc1cc2c(cc1[N+](=O)[O-])-c1ccc([N+](=O)[O-])cc1C2`, for which the AC50 was 12.4 µM (active) in test [11] and 26.7 µM (active) in test [12].

With `O=C(Nc1cccnc1)c1cc(-c2cc(Cl)ccc2O)n[nH]1`, the 50% effective concentration (EC50) (usually the midpoint of the concentration-response curve) in [13] was 6.15 µM (active); in test [14], 0.439 µM (active); in [15], 0.56 µM (active); in the test with H4, 0.608 µM (active); in test [16] it was > 12 µM (not active).

Source of the values: ChEMBL document CHEMBL1201862, “PubChem BioAssay data set” (2004).
